# Laboratory results from ChEMBL document CHEMBL4480388, “Rad51/BRCA2 disruptors inhibit homologous recombination and synergize with olaparib in pancreatic cancer cells” (Eur J Med Chem, 2019).
# Activity calls are given as the source filed them. No cut-off for these calls is given here.
# Tests used:
# [1] = biological target: T1, DNA repair protein RAD51 homolog 1 (Homo sapiens, UniProt Q06609); assay: Displacement of N-terminal biotinylated-BRC4 from recombinant human Rad51 expressed in Escherichia coli by ELISA
# T1 sequence (Q06609 whole entry): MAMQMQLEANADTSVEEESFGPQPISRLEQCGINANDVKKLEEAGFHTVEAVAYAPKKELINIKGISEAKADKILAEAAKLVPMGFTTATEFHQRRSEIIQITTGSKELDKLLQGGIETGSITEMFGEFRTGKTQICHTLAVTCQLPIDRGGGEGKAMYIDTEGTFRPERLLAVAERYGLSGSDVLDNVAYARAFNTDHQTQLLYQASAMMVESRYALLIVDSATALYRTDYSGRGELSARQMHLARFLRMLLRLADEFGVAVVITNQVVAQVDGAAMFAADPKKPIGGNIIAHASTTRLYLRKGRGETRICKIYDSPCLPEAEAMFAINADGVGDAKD
# [2] = biological target: T2, DNA repair protein RAD51 homolog 1 (Homo sapiens) (UniProt Q06609); assay: Binding affinity to Rad51 in human BxPC3 cells assessed as reduction in protein-mediated homologous recombination at 40 uM measured after 16 hrs by reporter gene based PCR analysis relative to control; assay type: cell-based; design: scale not given: the % may be the effect or the level left
# T2 sequence (whole entry): T1 sequence (Q06609 whole entry)
# CAPAN-1 [3] = assay: Effect on homologous recombination in human Capan1 cells at 20 to 40 uM measured after 16 hrs by reporter gene based PCR analysis; assay type: functional, cell-based
# BXPC-3 [4] = assay: Synergistic cytotoxicity against human BxPC3 cells assessed as reduction in cell viability at 40 uM measured after 72 hrs in presence of PARP inhibitor olaparib by crystal violet staining based assay; assay type: functional
# CAPAN-1 [5] = assay: Synergistic cytotoxicity against human Capan1 cells assessed as reduction in cell viability at 40 uM measured after 72 hrs in presence of PARP inhibitor olaparib by crystal violet staining based assay; assay type: functional
# [6] = biological target: T2, DNA repair protein RAD51 homolog 1 (Homo sapiens); assay: Binding affinity to Rad51 in human BxPC3 cells assessed as reduction in protein-mediated homologous recombination at 5 to 30 uM measured after 16 hrs by reporter gene based PCR analysis; assay type: cell-based
# [7] = biological target: T2, DNA repair protein RAD51 homolog 1 (Homo sapiens); assay: Binding affinity to Rad51 in human BxPC3 cells assessed as reduction in protein-mediated homologous recombination at 20 uM measured after 16 hrs by reporter gene based PCR analysis relative to control; assay type: cell-based; design: scale not given: the % may be the effect or the level left
# CAPAN-1 [8] = assay: Effect on homologous recombination in human Capan1 cells at 10 to 20 uM measured after 16 hrs by reporter gene based PCR analysis; assay type: functional, cell-based
# BXPC-3 [9] = assay: Synergistic cytotoxicity against human BxPC3 cells assessed as reduction in cell viability at 20 uM measured after 72 hrs in presence of PARP inhibitor olaparib by crystal violet staining based assay; assay type: functional
# CAPAN-1 [10] = assay: Synergistic cytotoxicity against human Capan1 cells assessed as reduction in cell viability at 20 uM measured after 72 hrs in presence of PARP inhibitor olaparib by crystal violet staining based assay; assay type: functional
# BXPC-3 [11] = assay: Synergistic cytotoxicity against human BxPC3 cells assessed as reduction in cell viability measured after 72 hrs in presence of PARP inhibitor olaparib by crystal violet staining based assay; assay type: functional
# BXPC-3 [12] = assay: Synergistic cytotoxicity against human BxPC3 cells assessed as reduction in cell viability at 20 uM measured after 144 hrs in presence of PARP inhibitor olaparib by CellTox green dye based fluorescence assay; assay type: functional
# BXPC-3 [13] = assay: Synergistic cytotoxicity against human BxPC3 cells assessed as combination index at 20 uM measured after 144 hrs in presence of PARP inhibitor olaparib by CellTox green dye based fluorescence assay; assay type: functional
# BXPC-3 [14] = assay: Induction of DNA damage in human BxPC3 cells assessed as increase in gammaH2AX phosphorylation level at 20 uM measured after 144 hrs in presence of PARP inhibitor olaparib by Western blotting analysis relative to control; assay type: functional
# BXPC-3 [15] = assay: Induction of DNA damage in human BxPC3 cells assessed as increase in gammaH2AX phosphorylation level at 20 uM measured after 144 hrs by Western blotting analysis; assay type: functional, cell-based
# BXPC-3 [16] = assay: Induction of apoptosis in human BxPC3 cells assessed as increase in PUMA level at 20 uM measured after 144 hrs by Western blotting analysis; assay type: functional, cell-based
# BXPC-3 [17] = assay: Induction of apoptosis in human BxPC3 cells assessed as increase in BAX level at 20 uM measured after 144 hrs by Western blotting analysis; assay type: functional, cell-based
# BXPC-3 [18] = assay: Induction of apoptosis in human BxPC3 cells assessed as caspase-3 activation at 20 uM measured after 144 hrs by Western blotting analysis; assay type: functional, cell-based
# [19] = Solubility of the compound in RPMI 1640 medium; assay type: physicochemical
Compound,EC50 [1],other results
NC(=O)CSc1nnc(Cn2c(=O)sc3ccccc32)n1CCc1ccccc1,Not Active,–
O=C(CSc1nnc(Cn2c(=O)sc3ccc(O)cc32)n1CCc1ccccc1)NC1CCCC1,Not Active,–
O=C(CSc1nnc(Cn2c(=O)sc3ccccc32)n1CCCc1ccccc1)NC1CC1,–,EC50 ([1]; read-out: EC50): 24 µM; Activity [2]: 24%; Activity (CAPAN-1 [3]): inactive; Activity (BXPC-3 [4]): inactive; Activity (CAPAN-1 [5]): inactive
Cl.NCc1ccc(-c2nnc(SCC(=O)NC3CCCC3)n2CCc2ccccc2)cc1,Not Active,–
O=C(CSc1nnc(CN2CCSC2=O)n1CCCc1ccccc1)NC1CCCC1,Not Active,–
CN1CCC(NC(=O)CSc2nnc(Cn3c(=O)sc4ccccc43)n2CCCc2ccccc2)CC1,Not Active,–
O=C(CSc1nnc(Cn2c(=O)sc3ccccc32)n1CCCc1ccccc1)C1CCCC1,Not Active,–
Cc1ccc(C#N)c(=O)n1Cc1nnc(SCC(=O)NC2CCCC2)n1CCCc1ccccc1,Not Active,–
O=C(CSc1nnc(Cn2c(=O)sc3ccccc32)n1CCCc1ccccc1)NC1CCCC1,–,EC50 ([1]; read-out: EC50): 25 µM; Activity [6]: inactive
O=C(CSc1nnc(Cn2c(=O)[nH]c3ccccc32)n1CCCc1ccccc1)NC1CCCC1,Not Active,–
O=C(CSc1nnc(Cn2c(=O)sc3ccccc32)n1CCCc1ccccc1)Nc1ccccc1,Not Active,–
Cc1nnc(SCC(=O)NC2CCCC2)n1CCc1ccccc1,Not Active,–
O=C(CSc1nnc(Cn2c(=O)oc3ccccc32)n1CCCc1ccccc1)NC1CCCC1,–,EC50 ([1]; read-out: EC50): 90 µM
O=C(CSc1nnc(Cn2c(=O)sc3ccccc32)n1CCCc1ccccc1)N1CCCCC1,Not Active,–
O=C(CSc1nnc(Cn2ccsc2=O)n1CCCc1ccccc1)NC1CCCC1,Not Active,–
O=c1sc2ccccc2n1Cc1nnc(S)n1CCc1ccccc1,Not Active,–
O=C(CSc1nnc(Cn2c(=O)sc3ccccc32)n1CCc1ccccc1)N1CCOCC1,Not Active,–
O=C(CSc1nnc(CNc2ccccc2)n1CCc1ccccc1)NC1CCCC1,Not Active,–
COc1ccc2sc(=O)n(Cc3nnc(SCC(=O)NC4CCCC4)n3CCc3ccccc3)c2c1,Not Active,–
O=C(CSc1nnc(Cn2c(=O)sc3ccccc32)n1CCc1ccccc1)NC1CC1,Not Active,–
O=C(CSc1nnc(Cn2c(=O)sc3ccccc32)n1CCc1ccccc1)N1CCCC1,Not Active,–
Cl.Nc1cccn(Cc2nnc(SCC(=O)NC3CCCC3)n2CCCc2ccccc2)c1=O,Not Active,–
O=C(CSc1nnc(Cn2c(=O)sc3ccccc32)n1CCCc1ccccc1)NC1CCCCC1,–,EC50 ([1]; read-out: EC50): 8 µM; Activity [7]: 40%; Activity (CAPAN-1 [8]): inactive; Activity (BXPC-3 [9]): Active; Activity (CAPAN-1 [10]): inactive; Activity (BXPC-3 [11]): Dose-dependent effect; Activity (BXPC-3 [12]): Active; CI (BXPC-3 [13]): 0.76; Activity (BXPC-3 [14]): >70%; Activity (BXPC-3 [15]): inactive; Activity (BXPC-3 [16]): inactive; Activity (BXPC-3 [17]): inactive; Activity (BXPC-3 [18]): inactive
O=C(CSc1nnc(Cn2c(=O)sc3ccccc32)n1CCc1ccccc1)NC1CCCC1,–,EC50 ([1]; read-out: EC50): 53 µM
Cc1ccccc1CCn1c(Cn2c(=O)sc3ccccc32)nnc1SCC(=O)NC1CCCC1,–,EC50 ([1]; read-out: EC50): 100 µM
O=C(CSc1nnc(Cn2c(=O)sc3ccccc32)n1CCc1ccccc1)Nc1ccccc1,–,EC50 ([1]; read-out: EC50): 95 µM
O=C(CSc1nncn1CCc1ccccc1)NC1CCCC1,Not Active,–
O=C(CSc1nnc(Cn2c(=O)sc3ccccc32)n1CCc1ccccc1)NCc1ccccc1,Not Active,–
O=C(CSc1nnc(Cn2c(=O)sc3ccccc32)n1CCCc1ccccc1)NC1CCC1,–,EC50 ([1]; read-out: EC50): 42 µM; solubility [19]: Insoluble
O=C(CSc1nnc(Cn2c(=O)sc3ccccc32)n1CCc1ccccc1)NCc1ccc(F)cc1,Not Active,–

# Second part, led by results:
EC50 [1],Compound,other results
Not Active,O=C(CSc1nnc(Cn2c(=O)sc3ccccc32)n1CCc1cccc(O)c1)NC1CCCC1,–
Not Active,O=C(CSc1nnc(Cn2c(=O)sc3ccccc32)n1CCc1ccccc1F)NC1CCCC1,–
Not Active,O=C(CSc1nnc(Cn2c(=O)sc3ccccc32)n1CCc1cccc(F)c1)NC1CCCC1,–
Not Active,O=C(CSc1nnc(Cn2c(=O)sc3ccccc32)n1CCCc1cccnc1)NC1CCCC1,–
Not Active,O=C(CSc1nnc(Cn2c(=O)sc3ccccc32)n1CCc1ccccc1O)NC1CCCC1,–
Not Active,O=C(CSc1nnc(Cn2c(=O)sc3ccccc32)n1CCc1ccccc1)NC1CCCCC1,–
Not Active,O=C(CSc1nnc(Cn2c(=O)sc3ccccc32)n1CCCc1ccncc1)NC1CCCC1,–
Not Active,O=C(CSc1nnc(Cn2c(=O)sc3ccccc32)n1CCCc1ccccn1)NC1CCCC1,–
Not Active,O=C(CSc1nnc(Cn2c(=O)sc3ccccc32)n1CCc1ccc(F)cc1)NC1CCCC1,–
Not Active,O=C(CSc1nnc(Cn2c(=O)sc3ccc(F)cc32)n1CCc1ccccc1)NC1CCCC1,–
Not Active,Cc1cccc(CCn2c(Cn3c(=O)sc4ccccc43)nnc2SCC(=O)NC2CCCC2)c1,–
